Structures can show the parent of a compound that is named as a salt.
Experiments:
[1] = tested on: A. baumannii LMG 1025 (ATCC 17978); test: Assay 2: growth inhibition of A. baumannii by sub-inhibitory chloramphenicol in combination with examples (resazurin reduction); type: cell-based, Acinetobacter baumannii; details: read-out: EC90 on A. baumannii with 10 μg/mL of chloramphenicol, 10 μg/mL chloramphenicol, 5 h or 24 h, 37° C.
From the text: (§1) Escherichia coli BW25113 (CGSC 7636) and its derivatives E. coli ΔtolC (JW5503-1, ΔtolC732::kan, CGSC 11430), E. coli ΔacrA (JW0452-3, ΔacrA748::kan, CGSC 11843) and E. coli ΔacrB (JW0451-2, ΔacrB747::kan, CGSC 8609) were obtained from E. coli Genetic Stock Center (CGSC, New Haven, Connecticut) and originated from the Keio Collection (Baba T et al, Mol Sys Biol, 2006). Klebsiella pneumoniae (LMG 2095/ATCC 13883) and K. pneumoniae (ATCC43816), Pseudomonas aeruginosa (PAO1), Acinetobacter baumannii (LMG 1025, ATCC 17978), were obtained from ATCC or BCCM/LMG Bacteria Collection. All bacteria were grown and tested in cation-adjusted Mueller-Hinton broth (CAMHB; BD Difco) at 37° C. For conservation, log phase bacteria were frozen (−80° C.) in CAMHB supplemented with 15% glycerol.
Measurement of Growth Inhibition of A. baumannii Strains by Sub Inhibitory Concentrations of Chloramphenicol in Combination with Examples 1-137
For the evaluation of the dose dependent activity of examples 1-137, their ability to boost the antibacterial activity of sub-inhibitory concentrations chloramphenicol was determined. Briefly, A. baumannii LMG 1025 (ATCC 17978) were diluted from frozen or growing stocks to an OD600 of 0.001 in CAMHB. The bacterial suspension was then used as such (no-antibiotic control to evaluate EPI activity), or spiked with chloramphenicol at a final concentration of 10 μg/mL. Bacteria were then added to microplates carrying serial dilutions of the compounds examples 1-137, and incubated for (5 h or 24 h, 37° C.). Bacterial viability was evaluated using the resazurin reduction assay, and measured by fluorescence (POLARstar Omega, BMG Labtech: Ex: 530 nm Em: 590 nm). […] were defined as the compound concentration that prevented 90% of resazurin turnover compared to the non-treated bacteria.

[2] = tested on: E. coli BW25113; test: Assay 1: growth inhibition of E. coli by sub-inhibitory pyridomycin in combination with examples (resazurin reduction); type: cell-based, Escherichia coli; details: read-out: EC50 on E. coli with 8 μg/mL of pyridomycin, 8 μg/mL pyridomycin, 5 h, 37° C.
From the text: as §1
Briefly, E. coli BW25113 were diluted from frozen or growing stocks to an OD600 of 0.0004-0.001 in CAMHB. […] E. coli BW25113 viability was evaluated using the resazurin reduction assay, and measured by fluorescence (POLARstar Omega, BMG Labtech: Ex: 530 nm Em: 590 nm). EC50 were defined as the compound concentration that prevented 50% of resazurin turnover compared to the non-treated bacteria.

For `FC(F)(F)c1cnc(N2CCNCC2)c(Br)c1` [Example 17, 1-[3-bromo-5-(trifluoromethyl)-2-pyridyl]piperazine; hydrochloride], the EC90 [1] was 100 to 500 µM and the EC50 [2] was 5 to 100 µM.
`Clc1cc2ccccc2nc1N[C@H]1[C@@H]2CNC[C@@H]21` [Example 57, N-[(1R,5S)-3-azabicyclo[3.1.0]hexan-6-yl]-3-chloro-quinolin-2-amine;hydrochloride] showed an EC90 [1] of 100 to 500 µM.
With `Ic1cc2ccccc2nc1N1CCNCC1` [Example 52, 3-iodo-2-piperazin-1-yl-quinoline;hydrochloride] the EC90 [1] was 100 to 500 µM and the EC50 [2] was < 5 µM.
For `Brc1cc2ccccc2nc1N1CCNCC1` [Example 43, 3-bromo-2-piperazin-1-yl-quinoline;hydrochloride], the EC90 [1] was 100 to 500 µM and the EC50 [2] was < 5 µM.
With `Clc1nc2ccccc2nc1N1CCNCC1` [Example 46, 2-chloro-3-piperazin-1-yl-quinoxaline;hydrochloride] the EC90 [1] was 100 to 500 µM and the EC50 [2] was < 5 µM.
In the case of `N#Cc1cc2ccccc2nc1N1CCNCC1` [Example 39, 2-piperazin-1-ylquinoline-3-carbonitrile; hydrochloride], the EC90 [1] is reported as 100 to 500 µM and the EC50 [2] is reported as 5 to 100 µM.
With `FC(F)(F)c1cc(I)cnc1N1CCNCC1` [Example 21, 1-[5-iodo-3-(trifluoromethyl)-2-pyridyl]piperazine; hydrochloride] the EC90 [1] was 100 to 500 µM and the EC50 [2] was 5 to 100 µM.
`Cc1ccc2nc(N3CCNCC3)c(Br)cc2c1` [Example 55, 3-bromo-6-methyl-2-piperazin-1-yl-quinoline;hydrochloride] was tested, and the EC90 [1] was 100 to 500 µM and the EC50 [2] was < 5 µM.
For `Clc1cc2cc(-c3cccc4c3CNC4)ccc2nc1N1CCNCC1` [Example 134, 3-chloro-6-isoindolin-4-yl-2-piperazin-1-yl-quinoline;dihydrochloride], the EC90 [1] was 5 to 100 µM and the EC50 [2] was < 5 µM.
`FC(F)(F)c1ccc2nc(N3CCNCC3)c(Br)cc2c1` [Example 53, 3-bromo-2-piperazin-1-yl-6-(trifluoromethyl)quinoline; hydrochloride] showed an EC90 [1] of 100 to 500 µM and an EC50 [2] of 5 to 100 µM.
Work on `Cc1ccc(COC(=O)c2cnc(N3CCNCC3)c(Cl)c2)cc1` [Example 24, p-tolylmethyl 5-chloro-6-piperazin-1-yl-pyridine-3-carboxylate;hydrochloride] yielded an EC90 [1] of 100 to 500 µM and an EC50 [2] of 5 to 100 µM.
`O=C(OCCc1ccc(Cl)cc1)c1cnc(N2CCNCC2)c(Cl)c1` [Example 26, 2-(4-chlorophenyl)ethyl 5-chloro-6-piperazin-1-yl-pyridine-3-carboxylate;hydrochloride] showed an EC90 [1] of 100 to 500 µM and an EC50 [2] of 100 to 500 µM.
`Clc1cc2cc(-c3ccccc3)ccc2nc1N1CCNCC1` [Example 106, 3-chloro-6-phenyl-2-piperazin-1-yl-quinoline;hydrochloride] was tested, and the EC90 [1] was 5 to 100 µM and the EC50 [2] was 5 to 100 µM.
`Cc1ccc2nc(Cl)c(N3CCNCC3)cc2c1` [Example 42, 2-chloro-6-methyl-3-piperazin-1-yl-quinoline;hydrochloride] gave an EC90 [1] of 100 to 500 µM and an EC50 [2] of 5 to 100 µM.
For `FC(F)(F)c1cnc(N[C@H]2[C@@H]3CNC[C@@H]32)c(Cl)c1` [Example 16, (1R,5S)-N-[3-chloro-5-(trifluoromethyl)-2-pyridyl]-3-azabicyclo[3.1.0]hexan-6-amine;formic acid], the EC90 [1] was 100 to 500 µM.
For `Cc1cccc2cc(Cl)c(N3CCNCC3)nc12` [Example 59, 3-chloro-8-methyl-2-piperazin-1-yl-quinoline;hydrochloride], the EC90 [1] was 100 to 500 µM and the EC50 [2] was < 5 µM.
For `FC(F)(F)c1cnc(N2CCCNCC2)c(Cl)c1` [Example 6, 1-[3-chloro-5-(trifluoromethyl)-2-pyridyl]-1,4-diazepane], the EC90 [1] was 100 to 500 µM and the EC50 [2] was 100 to 500 µM.
Molecule `O=C(NCc1ccc(Cl)cc1)c1cnc(N2CCNCC2)c(Cl)c1` [Example 33, 5-chloro-N-[(4-chlorophenyl)methyl]-6-piperazin-1-yl-pyridine-3-carboxamide;hydrochloride] has an EC90 [1] of 100 to 500 µM and an EC50 [2] of 5 to 100 µM.
Work on `O=C(OCCc1ccccc1)c1cnc(N2CCNCC2)c(Cl)c1` [Example 30, 2-phenylethyl 5-chloro-6-piperazin-1-yl-pyridine-3-carboxylate;hydrochloride] yielded an EC90 [1] of 100 to 500 µM and an EC50 [2] of 5 to 100 µM.
With `COc1nc2ccccc2nc1N1CCNCC1` [Example 82, 2-methoxy-3-piperazin-1-yl-quinoxaline; 2,2,2-trifluoroacetic acid] the EC90 [1] was 100 to 500 µM and the EC50 [2] was 5 to 100 µM.
With `Clc1cc2ccccc2nc1N1CCCNCC1` [Example 11, 3-chloro-2-(1,4-diazepan-1-yl)quinoline] the EC90 [1] was 100 to 500 µM and the EC50 [2] was 5 to 100 µM.
For `Clc1ccc2nc(N3CCNCC3)c(Br)cc2c1` [Example 54, 3-bromo-6-chloro-2-piperazin-1-yl-quinoline; hydrochloride], the EC90 [1] was 100 to 500 µM and the EC50 [2] was < 5 µM.
`Clc1cc2ccccc2nc1N1C2CCC1CNC2` [Example 45, 3-chloro-2-(3,8-diazabicyclo[3.2.1]octan-8-yl)quinoline;hydrochloride] showed an EC90 [1] of 100 to 500 µM and an EC50 [2] of 100 to 500 µM.
In the case of `FC(F)(F)c1cnc(N2CCNCC2)c(Cl)c1` [Example 14, 1-[3-chloro-5-(trifluoromethyl)-2-pyridyl]piperazine; hydrochloride], the EC90 [1] is reported as 100 to 500 µM and the EC50 [2] is reported as 5 to 100 µM.
With `Cc1cc2ccccc2nc1N1CCNCC1` [Example 38, 3-methyl-2-piperazin-1-yl-quinoline; hydrochloride] the EC90 [1] was 100 to 500 µM and the EC50 [2] was 5 to 100 µM.
`O=C(OCCCc1ccccc1)c1cnc(N2CCNCC2)c(Cl)c1` [Example 23, 3-phenylpropyl 5-chloro-6-piperazin-1-yl-pyridine-3-carboxylate;hydrochloride] was tested, and the EC90 [1] was 100 to 500 µM and the EC50 [2] was 100 to 500 µM.
In the case of `Clc1nc2ccccc2nc1N1CC2CC(C1)N2` [Example 83, 2-chloro-3-(3,6-diazabicyclo[3.1.1]heptan-3-yl)quinoxaline; trifluoromethanesulfonic acid], the EC90 [1] is reported as 100 to 500 µM and the EC50 [2] is reported as 100 to 500 µM.
`FC(F)(F)c1ccc(N2CCNCC2)c(Cl)c1` [Example 20, 1-[2-chloro-4-(trifluoromethyl)phenyl]piperazine; hydrochloride] gave an EC90 [1] of 100 to 500 µM and an EC50 [2] of 5 to 100 µM.
`Brc1cnc(N2CCNCC2)c2ccccc12` [Example 44, 4-bromo-1-piperazin-1-yl-isoquinoline;hydrochloride] was tested, and the EC90 [1] was 5 to 100 µM and the EC50 [2] was 100 to 500 µM.
With `C[C@@H]1CN(c2nc3ccccc3nc2Cl)CCN1` [Example 49, hydrochloride] the EC90 [1] was 100 to 500 µM and the EC50 [2] was 5 to 100 µM.
With `O=C(OCc1ccc(Cl)cc1)c1cnc(N2CCNCC2)c(Cl)c1` [Example 25, (4-chlorophenyl)methyl 5-chloro-6-piperazin-1-yl-pyridine-3-carboxylate;hydrochloride] the EC90 [1] was 100 to 500 µM and the EC50 [2] was 5 to 100 µM.
In the case of `Clc1nc2ccccc2nc1N[C@H]1[C@@H]2CNC[C@@H]21` [Example 51, N-[(1R,5S)-3-azabicyclo[3.1.0]hexan-6-yl]-3-chloro-quinoxalin-2-amine;hydrochloride], the EC90 [1] is reported as 100 to 500 µM.
Work on `CCOC(=O)c1cnc(N2CCNCC2)c(Cl)c1` [Example 32, ethyl 5-chloro-6-piperazin-1-yl-pyridine-3-carboxylate; hydrochloride] yielded an EC50 [2] of 5 to 100 µM.
With `O=C1NCCN1c1ccc2nc(N3CCNCC3)c(Cl)cc2c1` [Example 96, 1-(3-chloro-2-piperazin-1-yl-6-quinolyl)imidazolidin-2-one;hydrochloride] the EC50 [2] was < 5 µM.
For `COc1ccc2nc(Cl)c(N3CCNCC3)nc2c1` [Example 70, 2-chloro-6-methoxy-3-piperazin-1-yl-quinoxaline; hydrochloride], the EC50 [2] was 5 to 100 µM.
In the case of `Clc1cc2ncccc2nc1N1CCNCC1` [Example 69, 3-chloro-2-piperazin-1-yl-1,5-naphthyridine; hydrochloride], the EC50 [2] is reported as 5 to 100 µM.
Work on `O=C(Oc1ccccc1)c1cnc(N2CCNCC2)c(Cl)c1` [Example 84, Phenyl 5-chloro-6-piperazin-1-yl-pyridine-3-carboxylate; 2,2,2-trifluoroacetic acid] yielded an EC50 [2] of 5 to 100 µM.
For `Clc1cc2cc(N3CCNCC3)ccc2nc1N1CCNCC1` [Example 56, 3-chloro-2,6-di(piperazin-1 yl)quinoline;dihydrochloride], the EC50 [2] was < 5 µM.
`NCc1cccc(OCc2cnc(N3CCNCC3)c(Cl)c2)c1` [Example 77, [3-[(5-chloro-6-piperazin-1-yl-3-pyridyl)methoxy]phenyl]methanamine;dihydrochloride] gave an EC50 [2] of 5 to 100 µM.
